Measurements as given in patent US20230382871A1, “CSF1R KINASE INHIBITOR AND USE THEREOF” (SHANGHAI INSTITUTE OF MATERIA MEDICA, CHINESE ACADEMY OF …, priority 2020, published 2023).
Values joined by “and” are separate entries in the source; they are usually repeats but may differ in a detail not shown here. Identical values can stand only once.

Key:
[1] = test system: human glioma U87MG subcutaneous xenografts; test: Human glioma U87MG subcutaneous xenografts in nude mice; assay type: in vivo, BALB/c nude mice; conditions: 40 mg/kg bid × 21 po
Experimental: BALB/c nude female mice of 3-4 weeks old were used, and were provided by […] […] OF MATERIA MEDICA, CHINESE ACADEMY OF SCIENCES.
Human glioma U87MG cells were subcutaneously inoculated into the right axillary fossa of a nude mouse (5×10^6 cells/mouse). After a xenograft was formed, the tumor was transferred to a nude mouse for 1 passage.
Tumor tissues at the vigorous growth stage were removed and cut into pieces of approximately 1.5 mm^3. The tumor fragments were inoculated subcutaneously into the right axillary fossa of nude mice under aseptic conditions. The diameters of the subcutaneous xenografts in nude mice were measured with a vernier caliper. The animals were randomly grouped after the xenografts reached an average volume of about 90 mm^3. Compound I was administered orally at doses of 40 mg/kg, 20 mg/kg and 10 mg/kg twice a day for 21 consecutive days. An equal volume of a blank preparation was administered orally twice a day for 21 consecutive days. The positive control drug Axitinib was administered orally at a dose of 40 mg/kg group twice a day for 21 consecutive days. An equal volume of water for injection was administered to the animals in the solvent group. Throughout the experiment, the diameters of the xenografts were measured twice a week and the mice were weighed at the same time. The tumor volume (TV) was calculated as TV=½×a×b^2, where “a” and “b” denote the length and width of a tumor, respectively. The relative tumor volume (RTV) was calculated from the measurement results with the calculation formula RTV=Vt/V0, in which V0 is the tumor volume measured upon administration after grouping (i.e., D0) and Vt is the tumor volume from each measurement. The evaluation index of anti-tumor activity is the relative tumor proliferation rate T/C (%), which is calculated as T/C (%)=(TRTV/CRTV)×100%, in which TRTV denotes the RTV from the treatment group and CRTV denotes the RTV from solvent group.

[2] = test system: human colorectal cancer HT-29 subcutaneous xenografts; test: Human colorectal cancer HT-29 subcutaneous xenografts in nude mice; assay type: in vivo, BALB/c nude mice; conditions: 40 mg/kg bid × 21 po
From the text: BALB/c female nude mice of 6 weeks old were used, and were provided by Shanghai Lingchang Biotechnology Co., Ltd.
Human colorectal cancer HT-29 cells were subcutaneously inoculated into the right axillary fossa of a nude mouse (5×10^6 cells/mouse). After a xenograft was formed, the tumor was transferred to a nude mouse for 1 passage.
Tumor tissues at the vigorous growth stage were removed and cut into pieces of approximately 1.5 mm^3. The tumor fragments were inoculated subcutaneously into the right axillary fossa of nude mice under aseptic conditions. The diameters of the subcutaneous xenografts in nude mice were measured with a vernier caliper. The animals were randomly grouped after the xenografts reached an average volume of about 120 mm^3. Compound I was administered orally at doses of 20 mg/kg, 10 mg/kg and 5 mg/kg twice a day for 21 consecutive days. An equal volume of a blank preparation was administered orally twice a day for 21 consecutive days. The positive control drug Axitinib was administered orally at a dose of 40 mg/kg group twice a day for 21 consecutive days. An equal volume of water for injection was administered to the animals in the solvent group. Throughout the experiment, the diameters of the xenografts were measured twice a week and the mice were weighed at the same time. The tumor volume (TV) was calculated as TV=½×a×b^2, where “a” and “b” denote the length and width of a tumor, respectively. The relative tumor volume (RTV) was calculated from the measurement results with the calculation formula RTV=Vt/V0, in which V0 is the tumor volume measured upon administration after grouping (i.e., D0) and Vt is the tumor volume from each measurement. The evaluation index of anti-tumor activity is the relative tumor proliferation rate T/C (%), which is calculated as T/C (%)=(TRTV/CRTV)×100%, in which TRTV denotes the RTV from the treatment group and CRTV denotes the RTV from solvent group.

[3] = test system: macrophage marker F4/80 in U87MG tumor tissues; test: Immunohistochemistry of macrophage marker F4/80 in U87MG tumor tissues; assay type: in vivo, nude mice; conditions: 40 mg/kg, compared with blank preparation group
Experimental: (§1) At the end of the in vivo experiments, U87MG and HT-29 xenografts in nude mice were removed and fixed with […] to prepare paraffin sections.
(§2) Expression of individual proteins was assessed using multiplicative quick score method (MQS). This evaluation method takes into account both the staining intensity and the staining range. The method estimates the proportion of positive cells and gives a range score from 1 to 6 (1=1%-4%; 2=5%-19%; 3=20%-39%; 4=40%-59%; 5=60%-79%; 6=80%-100%). The average intensity score of positive stained cells was 0 to 3 (0=no staining; 1=weak staining; 2=moderate staining; 3=strong staining). The total score a (minimum 0 and maximum 18) is then calculated by multiplying the range score by the intensity score.
(§3) For detecting the changes in the macrophage marker F4/80 and M2-type macrophage marker CD206 in the U87MG tumor tissues, quantitative analysis (solvent: n=6, blank preparation: n=6, Compound I (10 mg/kg): n=6, Compound I (20 mg/kg): n=6, Compound I (40 mg/kg): n=6, Axitinib: n=4) was performed on all sections and the experimental data were analyzed for significant differences using the t-test. * denotes p<0.05 as compared with the blank preparation group, ** denotes p<0.01 as compared with the blank preparation group, and denotes p<0.001 as compared with the blank preparation group.

[4] = test system: M2-type macrophage marker CD206 in U87MG tumor tissues; test: Immunohistochemistry of M2-type macrophage marker CD206 in U87MG tumor tissues; assay type: in vivo, nude mice; conditions: 40 mg/kg
Experimental: as §1, §2, §3

[5] = test system: macrophage marker F4/80 in HT-29 tumor tissues; test: Immunohistochemistry of macrophage marker F4/80 in HT-29 tumor tissues; assay type: in vivo, nude mice; conditions: Compound I 5, 10, 20 mg/kg; Axitinib 40 mg/kg
Experimental: At the end of the in vivo experiments, U87MG and HT-29 xenografts in nude mice were removed and fixed with […] to prepare paraffin sections. Expression of individual proteins was assessed using multiplicative quick score method (MQS). This evaluation method takes into account both the staining intensity and the staining range. […] The average intensity score of positive stained cells was 0 to 3 (0=no staining; 1=weak staining; 2=moderate staining; 3=strong staining). The total score a (minimum 0 and maximum 18) is then calculated by multiplying the range score by the intensity score.

[6] = test system: M2-type macrophage marker CD206 in HT-29 tumor tissues; test: Immunohistochemistry of M2-type macrophage marker CD206 in HT-29 tumor tissues; assay type: in vivo, nude mice; conditions: Compound I 5, 10, 20 mg/kg; Axitinib 40 mg/kg
Experimental: as §1, §2
as §3, with “the HT-29” for “the U87MG”, “(solvent: n=12,” for “(solvent: n=6,”, “preparation: n=6, Compound I (5 mg/kg):” for “preparation:”, “n=6,” for “n=6, Compound I (40 mg/kg): n=6,”, “Axitinib: n=6)” for “Axitinib: n=4)”

[7] = test system: human glioma U87MG brain in situ transplantation; test: Survival in U87MG brain in situ transplantation model in nude mice; assay type: in vivo, BALB/cA nude mice
[8] = test system: BMDM cells; test: CCK8 cell proliferation inhibition assay on CSF1-stimulated bone marrow-derived macrophages; assay type: cell-based, mice (BALB/c); conditions: Mus musculus, 72 h exposure
Experimental: Mice (BALB/c) were subjected to euthanasia and then immersed in 75% alcohol for 3-5 min. The tibias and femurs of the mice were removed with ophthalmic forceps and ophthalmic clips on an ultraclean table. The tibial and femoral joints were cut off and bone marrow cells were washed out with a sterile buffer. Bone marrow cells were filtered with a 70 µm nylon membrane. The filtrate was centrifuged and the supernatant was discarded. An erythrocyte lysate was added to the pellets, which were allowed to incubate for 3-4 min. Then, a sterile buffer was added to stop the lysis reaction. The reactant was centrifuged and the supernatant was discarded, thereby yielding bone marrow cell pellets. The cells were cultured in 1640 medium (supplemented with FBS and 10 ng/mL of CSF1) for 5 to 7 days and identified as macrophages by flow cytometry. CCK8 cell counting kits were used in this assay. Bone marrow-derived macrophages, after induction by CSF1 for 5 to 7 days, were seeded into 96-well culture plates and allowed to incubate overnight. Then, the cells were exposed to compounds at various concentrations for 72 h. A blank control group was set. 10 μL of CCK8 reagent was added to each well and the places were placed in an incubator for 4 to 12 h. The plates were read with a microplate reader at a wavelength of 450 nm. […] Each experiment was independently repeated for three times.

[9] = treated patients; cited from earlier work
[10] = 40 mg/kg, implantation day as Day 0

Molecule: CNC(=O)c1ccccc1Sc1ccc2c(/C=C/c3ccccn3)n[nH]c2c1 [Axitinib, reference compound]
- Body Weight (g) D 0 ([1]; D 0): 16.0 g
- TV (mm^3, mean ± SD) D 0 ([1]; D 0): 88 ± 17 mm^3
- Body Weight (g) D 21 ([1]; D 21): 18.0 g
- RTV (mean ± SD) ([1]; D 21): 9.08 ± 5.66
- TV (mm^3, mean ± SD) D 21 ([1]; D 21): 795 ± 478 mm^3
- T/C (%) ([1]; Day 21): 30.27%
- Body Weight (g) D 0 ([2]; D 0): 19.1 g
- TV (mm3, mean ± SD) D 0 ([2]; D 0): 123 ± 35 mm3
- Body Weight (g) D 21 ([2]; D 21): 17.5 g
- RTV (mean ± SD) ([2]; D 21): 4.30 ± 1.82
- TV (mm3, mean ± SD) D 21 ([2]; D 21): 505 ± 202 mm3
- T/C (%) ([2]; Day 21): 48.88%
- expression of F4/80 in macrophages, U87MG tumor tissue [3]: no significant effect
- expression of M2-type macrophage marker CD206, U87MG tumor tissue [4]: no significant effect
- expression of F4/80, HT-29 tumor tissue [5]: no inhibitory activity
- expression of CD206, HT-29 tumor tissue [6]: no inhibitory activity
- Median survival time, MST ([7]; 40 mg/kg po twice a day from Day 8): 41 days and 41.0 days
- day of first death in the group [7, 10]: 28 days
- day of last death in the group [7, 10]: 48 days
- ILS (%), Increase in Life Span ([7]; 40 mg/kg, vs solvent group MST): −10.87%

Molecule: FC(F)(F)c1ccc(CNc2ccc(Cc3c[nH]c4ncc(Cl)cc34)cn2)cn1 [PLX3397, Pexidartinib, reference compound]
- IC50 [8]: 30 ± 9 nM

Molecule: Yervoy: an anti-CTLA-4 antibody
- patients experiencing immune-related adverse events [9]: up to 60%
- share of immune-related adverse events that were severe (grade 3-4) [9]: 10-30%
